Here are results for 30 molecules from patent publication US11028090B2 (Dong Wha Pharm. Co., Ltd., priority 2017, dated 2021).

The experiment has as its target BRD4 (BD1+BD2) bromodomain (Homo sapiens (Human), UniProt O60885). Nature of the experiment: BRD4 binding inhibition (AlphaScreen, GST-BRD4 vs tetraacetylated histone H4 peptide). In short, it runs like this: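 GST-BRD4 (BD1+BD2) and biotinylated tetraacetyl-histone H4 peptide, each at 100 nM in HEPES pH 7.4 buffer with BSA and DTT, were combined with compound. Glutathione acceptor and streptavidin donor beads were added, then incubated 30 min at room temperature in the dark. Read-out was AlphaScreen signal.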
A general note: Bead proximity is the source of the signal in Alpha formats.

[1] abbreviates: GST-BRD4 (BD1+BD2) vs biotinylated acetyl-histone H4 peptide, AlphaScreen, read-out: BRD4 IC50.
[2] abbreviates: GST-BRD4 (BD1+BD2) / biotinylated acetyl-histone H4 (Lys5,8,12,16) peptide, read-out: IC50, BRD4 binding inhibition.

Counter-ions that a name gives are not always drawn. Like-named read-outs stand apart in the source and are kept apart here.

For orientation: IC50 means the concentration at which inhibition is half-maximal. On to `COc1cc(C)c2c(c1)nc(NCCCCN)c1nnc(C)n12` [Example 456, N^1-(7-methoxy-1,9-dimethyl-[1,2,4]triazolo[4,3-a]quinoxaline-4-yl)-butane-1,4-diamine ditrifluoroacetic acid], for which the IC50 under setting [1] turned out to be 0.075 µM.
Regarding `COc1cc(C)c2c(c1)nc(NCCCCNC(=O)OC(C)C)c1nnc(C)n12` [Example 457, [4-(7-methoxy-1,9-dimethyl-[1,2,4]triazolo[4,3-a]quinoxaline-4-ylamino)-butyl]-carbamic acid-isopropylester], under setting [2], the IC50 is at most 0.05 µM.
Consider `COc1ccc2c(nc(NCCCCNC(=O)OC(C)(C)C)c3nnc(C)n32)c1Cl` [Example 459, [4-(6-chloro-7-methoxy-1-methyl-[1,2,4]triazolo[4,3-a]quinoxaline-4-ylamino)-butyl]-carbamic acid-tert-butylester], for which the IC50 reads like this: under setting [2], at most 0.05 µM; under setting [1], 0.03 µM.
For `COc1ccc2c(nc(NCCCCN)c3nnc(C)n32)c1Cl` [Example 460, dihydrochloride], the IC50 is, setting by setting: under setting [2], at most 0.05 µM; under setting [1], 0.012 µM.
For `COc1cc2nc(NCCCCNC(=O)OCC(C)C)c3nnc(C)n3c2cc1C(F)(F)F` [Example 474, [4-(7-methoxy-1-methyl-8-trifluoromethyl-[1,2,4]triazolo[4,3-a]quinoxaline-4-ylamino)-butyl]-carbamic acid isobutylester], in that order: at most 0.05 µM and 0.044 µM.
For `COc1cc2nc(NCCCCNC(=O)C(C)(C)C)c3nnc(C)n3c2cc1C(F)(F)F` [Example 477, N-[4-(7-methoxy-1-methyl-8-trifluoromethyl-[1,2,4]triazolo[4,3-a]quinoxaline-4-ylamino)-butyl]-2,2-dimethyl-propionamide], in that order: at most 0.05 µM and 0.02 µM.
For `COc1cc2nc(NCCCCNC(=O)[C@H](O)C(C)C)c3nnc(C)n3c2cc1C(F)(F)F` [Example 478, 2-(R)-hydroxy-N-[4-(7-methoxy-1-methyl-8-trifluoromethyl-[1,2,4]triazolo[4,3-a]quinoxaline-4-ylamino)-butyl]-3-methyl-butyramide], the IC50 was at most 0.05 µM under setting [2] and 0.044 µM under setting [1].
Turning to `COc1cc2nc(NCCCCNC(=O)c3ccccc3Cl)c3nnc(C)n3c2cc1C(F)(F)F` [Example 481, 2-chloro-N-[4-(7-methoxy-1-methyl-8-trifluoromethyl-[1,2,4]triazolo[4,3-a]quinoxaline-4-ylamino)-butyl]-benzamide], the IC50 under setting [1] worked out at 0.051 µM.
With `COc1cc2nc(NCCCCNC(=O)NC3CCCCC3)c3nnc(C)n3c2cc1C(F)(F)F` [Example 482, 1-cyclohexyl-3-[4-(7-methoxy-1-methyl-8-trifluoromethyl-[1,2,4]triazolo[4,3-a]quinoxaline-4-ylamino)-butyl]-urea], the IC50 was at most 0.05 µM under setting [2] and 0.02 µM under setting [1].
In the case of `COCCOc1cc2c(cc1OC)nc(NCCCCNC(=O)CC(C)C)c1nnc(C)n12` [Example 485, N-{4-[7-methoxy-8-(2-methoxy-ethoxy)-1-methyl-[1,2,4]triazolo[4,3-a]quinoxaline-4-ylamino]-butyl}-3-methyl-butyramide], the IC50 under setting [1] came out at 0.059 µM.
Consider `COc1cc2nc(NCCCCNC(=O)CC(C)C)c3nnc(C)n3c2c(OC)c1OC` [Example 488, 3-methyl-N-[4-(7,8,9-trimethoxy-1-methyl-[1,2,4]triazolo[4,3-a]quinoxaline-4-ylamino)-butyl]-butyramide], for which the IC50 is, setting by setting: under setting [2], at most 0.05 µM; under setting [1], 0.035 µM.
Take `CCC(C)CC(=O)NCCCCNc1nc2c(OC)cc(OC)c(OC)c2n2c(C)nnc12` (stereo not drawn) [Example 489, 3-methyl-pentanoic acid-[4-(6,8,9-trimethoxy-1-methyl-[1,2,4]triazolo[4,3-a]quinoxaline-4-ylamino)-butyl]-amide]: the IC50 runs as follows: under setting [2], at most 0.05 µM; under setting [1], 0.03 µM.
Consider `Cc1nnc2c(NCCCCN)nc3cc(N4CCOCC4)ccc3n12` [Example 498, N^1-(1-methyl-7-morpholine-4-yl-[1,2,4]triazolo[4,3-a]quinoxaline-4-yl)-butane-1,4-diamine dihydrochloride], for which the IC50 under setting [1] came out at 0.098 µM.
`Cc1nnc2c(NCCCCNC(=O)[C@@H](NC(=O)[C@H](C)O)C(C)C)nc3cc(N4CCOCC4)ccc3n12` [Example 504, (S)-2-(2-(S)-hydroxy-propionylamino)-3-methyl-N-[4-(1-methyl-7-morpholine-4-yl-[1,2,4]triazolo[4,3-a]quinoxaline-4-ylamino)-butyl]-butyramide hydrochloride]: the IC50 is, setting by setting: under setting [2], at most 0.05 µM; under setting [1], 0.034 µM.
In the case of `Cc1nnc2c(NCCCCNC(=O)[C@@H](F)C(C)C)nc3cc(N4C[C@@H](C)O[C@@H](C)C4)ccc3n12` [Example 511, N-{4-[7-(2,6-dimethyl-morphonyl-4-yl)-1-methyl-[1,2,4]triazolo[4,3-a]quinoxaline-4-ylamino]-butyl}-2-(S)-fluoro-3-methyl-butyramide], the IC50 by setting is: under setting [2], at most 0.05 µM; under setting [1], 0.034 µM.
With `Cc1nnc2c(NCCCCNC(=O)CC(C)C)nc3cc(N4CCSCC4)ccc3n12` [Example 523, 3-methyl-N-[4-(1-methyl-7-thiomorpholine-4-yl-[1,2,4]triazolo[4,3-a]quinoxaline-4-ylamino)-butyl]-butyramide], under setting [1], the IC50 was 0.054 µM.
`Cc1nnc2c(NCCCCNC(=O)[C@H](O)C(C)C)nc3cc(N4CCSCC4)ccc3n12` [Example 524, N-[4-(7-thiomorphonyl-4-yl-1-methyl-[1,2,4]triazolo[4,3-a]quinoxaline-4-ylamino)-butyl]-2-(R)-hydroxy-3-methyl-butyramide]: under setting [1], the IC50 came out at 0.069 µM.
As to `COC(=O)c1ccc2nc(NCCCCNC(=O)OC(C)(C)C)c3nnc(C)n3c2c1` [Example 530, 4-(4-tert-butoxycarbonylamino-butylamino)-1-methyl-[1,2,4]triazolo[4,3-a]quinoxaline-8-carboxylic acid methylester], the IC50 was at most 0.05 µM under setting [2] and 0.034 µM under setting [1].
In the case of `Cc1nnc2c(NCCCCNC(=O)OC(C)(C)C)nc3ccc(C(=O)NC(C)C)cc3n12` [Example 532, [4-(8-isopropylcarbamoyl-1-methyl-[1,2,4]triazolo[4,3-a]quinoxaline-4-ylamino)-butyl]-carbamic acid-tert-butylester], under setting [1], the IC50 is 0.075 µM.
The same measure, in the same setting: then `Cc1nnc2c(NCCCCNC(=O)OC(C)(C)C)nc3ccc(C(N)=O)cc3n12` [Example 533, [4-(8-carbamoyl-1-methyl-[1,2,4]triazolo[4,3-a]quinoxaline-4-ylamino)-butyl]-carbamic acid-tert-butylester], with 0.067 µM; and `Cc1nnc2c(NCCCCNC(=O)c3ccccc3)nc3ccc(C(=O)NCCN(C)C)cc3n12` [Example 537, 4-(4-benzoylamino)-1-methyl-[1,2,4]triazolo[4,3-a]quinoxaline-8-carboxylic acid-(2-dimethylamino-ethyl)-amide], with 0.093 µM; and `Cc1nnc2c(NCCCCNC(=O)OC(C)(C)C)nc3ccc(C(=O)Nc4ccccc4)cc3n12` [Example 538, [4-(1-methyl-8-phenylcarbamoyl-[1,2,4]triazolo[4,3-a]quinoxaline-4-ylamino)-butyl]-carbamic acid-tert-butylester], with 0.069 µM.
Consider `Cc1nnc2c(NCCCCNC(=O)OC(C)(C)C)nc3ccc([N+](=O)[O-])cc3n12` [Example 541, [4-(1-methyl-8-nitro-[1,2,4]triazolo[4,3-a]quinoxaline-4-ylamino)-butyl]-carbamic acid-tert-butylester], for which the concentration for half-maximal inhibition (IC50) under setting [2] was at most 0.05 µM and the IC50 under setting [1] was determined as 0.037 µM.
Take `Cc1nnc2c(NCCCCNC(=O)OC(C)(C)C)nc3ccc(N)cc3n12` [Example 542, [4-(8-amino-1-methyl-[1,2,4]triazolo[4,3-a]quinoxaline-4-ylamino)-butyl]-carbamic acid-tert-butylester]: under setting [1], the IC50 was found to be 0.061 µM.
For the molecule `Cc1nnc2c(NCCCCNC(=O)C(C)(C)C)nc3ccc(NC(=O)C(C)C)cc3n12` [Example 545], the IC50 under setting [1] came to 0.065 µM.
As to `CC(=O)Nc1ccc2nc(NCCCCNC(=O)OC(C)(C)C)c3nnc(C)n3c2c1` [Example 546, [4-(8-acetamino-1-methyl-[1,2,4]triazolo[4,3-a]quinoxaline-4-ylamino)-butyl]-carbamic acid-tert-butylester], the IC50 under setting [2] was at most 0.05 µM.
Regarding `CC(=O)Nc1ccc2nc(NCCCCNC(=O)C(C)(C)C)c3nnc(C)n3c2c1` [Example 547, N-[4-(8-acetamino-1-methyl-[1,2,4]triazolo[4,3-a]quinoxaline-4-ylamino)-butyl]-2,2-dimethyl-propionamide], the IC50 under setting [2] is at most 0.05 µM.
As to `CC(=O)Nc1ccc2nc(NCCCCNC(=O)c3ccccc3)c3nnc(C)n3c2c1` [Example 548, N-[4-(8-acetamino-1-methyl-[1,2,4]triazolo[4,3-a]quinoxaline-4-ylamino)-butyl]-benzamide], the IC50 is, setting by setting: under setting [2], at most 0.05 µM; under setting [1], 0.045 µM.
On to `Cc1noc(C)c1-c1ccc2nc(NCCCCNC(=O)OC(C)(C)C)c3nnc(C)n3c2c1` [Example 578, {4-[8-(3,5-dimethyl-isoxazol-4-yl)-1-methyl-[1,2,4]triazolo[4,3-a]quinoxaline-4-ylamino]-butyl}-carbamic acid-tert-butylester], for which the IC50 reads like this: under setting [2], at most 0.05 µM; under setting [1], 0.03 µM.
Take `Cc1noc(C)c1-c1ccc2nc(NCCCCN)c3nnc(C)n3c2c1` [Example 579, N^1-[8-(3,5-dimethyl-isoxazol-4-yl)-1-methyl-[1,2,4]triazolo[4,3-a]quinoxaline-4-yl]-butane-1,4-diamine ditrifluoroacetic acid]: the 50% inhibitory concentration (IC50) was at most 0.01 µM under setting [2] and 0.005 µM under setting [1].
